We go through 1 compound from patent US12390430B1 (SpringWorks Therapeutics, Inc., priority 2024, dated 2025).

Like-named read-outs stand apart in the source and are kept apart here.

The nature of data set [1]: Human plasma protein binding. It counts as in vitro ADME.
Data set [2] is described as follows: Clinical pharmacokinetics of mirdametinib (Table A). It counts as in vivo, human. The conditions noted are these: for Tmax / AUC(0-t) / Cmax: human, plasma; for Tmax: oral, read-out: Tmax [median (range)]; for AUC(0-t) / Cmax: po, steady state, BID oral dosing; for AUC(0-t): read-out: Steady-state exposure AUClast [geometric mean (geometric % CV)]; for Cmax: read-out: Steady-state exposure Cmax [geometric mean (geometric % CV)]. As to the method:
Study treatment was administered orally at a twice daily (BID) dose specified in the table below. Dosing was on a 28-day Cycle (4-week course) with a 3 week on/1 week off schedule. The treatment period will last for up to 24 Cycles followed by a 30-day Safety Follow-Up period.

A short description of data set [3]: Excretion of radioactivity and unchanged mirdametinib. In kind it is in vivo.
The mark [4] stands for this setting: geometric least squares mean ratio.
[5] abbreviates: pediatric patients (2 to <18 years).

Consider `O=C(NOC[C@H](O)CO)c1ccc(F)c(F)c1Nc1ccc(I)cc1F` (single isomer, unassigned) [mirdametinib], for which the fraction unbound in data set [1] is less than 0.01. Moreover, the “Food effect on AUCinf [GMR% (90% CI)]” value in data set [2] (setting [4]) was 93% (90%, 96%). The “Food effect on Cmax [GMR% (90% CI)]” value in data set [2] (setting [4]) is 57% (54%, 61%). In addition, the results for the Tmax in data set [2] (capsule) and in data set [2] (tablet) were 64.8 min and 49.8 min, respectively. For the same compound, the AUC(0-t) is 431 ng·h/mL in data set [2] (adult patients (>18 years)) and 459 ng·h/mL in data set [2] (setting [5]). The Cmax in data set [2] (adult patients (≥18 years)) was 188 ng/mL; in data set [2] (setting [5]) it was 191 ng/mL. For the same compound, the “Excretion: radioactivity in feces” value in data set [3] (feces) is given as “In feces: 27%”. The “Excretion: radioactivity in urine” value in data set [3] (urine) was “In urine: 68%”. Besides, the “Excretion: unchanged mirdametinib in urine” value in data set [3] (urine) is listed as “In urine: 0.7%”. Moreover, in data set [3] (urine and feces), the “Excretion: unchanged mirdametinib in urine and feces” value is “In urine and feces: 9%”.
